Key:
Type in all cases: biochemical
JAK3 = JAK3 (Homo sapiens (Human), UniProt P52333); test: JAK enzymatic assay (peptide mobility shift), JAK3; settings: recombinant JAK3 1 nM, JAKtide peptide, 90 minutes
JAK2 = JAK2 (Homo sapiens (Human), UniProt O60674); test: JAK enzymatic assay (peptide mobility shift), JAK2; settings: recombinant JAK2 2 nM, JAKtide peptide, 150 minutes
JAK1 = JAK1 (Homo sapiens (Human), UniProt P23458); test: JAK enzymatic assay (peptide mobility shift), JAK1; settings: recombinant JAK1 20 nM, IRS-1 peptide, 240 minutes
Sequence of JAK1 (P23458 whole entry): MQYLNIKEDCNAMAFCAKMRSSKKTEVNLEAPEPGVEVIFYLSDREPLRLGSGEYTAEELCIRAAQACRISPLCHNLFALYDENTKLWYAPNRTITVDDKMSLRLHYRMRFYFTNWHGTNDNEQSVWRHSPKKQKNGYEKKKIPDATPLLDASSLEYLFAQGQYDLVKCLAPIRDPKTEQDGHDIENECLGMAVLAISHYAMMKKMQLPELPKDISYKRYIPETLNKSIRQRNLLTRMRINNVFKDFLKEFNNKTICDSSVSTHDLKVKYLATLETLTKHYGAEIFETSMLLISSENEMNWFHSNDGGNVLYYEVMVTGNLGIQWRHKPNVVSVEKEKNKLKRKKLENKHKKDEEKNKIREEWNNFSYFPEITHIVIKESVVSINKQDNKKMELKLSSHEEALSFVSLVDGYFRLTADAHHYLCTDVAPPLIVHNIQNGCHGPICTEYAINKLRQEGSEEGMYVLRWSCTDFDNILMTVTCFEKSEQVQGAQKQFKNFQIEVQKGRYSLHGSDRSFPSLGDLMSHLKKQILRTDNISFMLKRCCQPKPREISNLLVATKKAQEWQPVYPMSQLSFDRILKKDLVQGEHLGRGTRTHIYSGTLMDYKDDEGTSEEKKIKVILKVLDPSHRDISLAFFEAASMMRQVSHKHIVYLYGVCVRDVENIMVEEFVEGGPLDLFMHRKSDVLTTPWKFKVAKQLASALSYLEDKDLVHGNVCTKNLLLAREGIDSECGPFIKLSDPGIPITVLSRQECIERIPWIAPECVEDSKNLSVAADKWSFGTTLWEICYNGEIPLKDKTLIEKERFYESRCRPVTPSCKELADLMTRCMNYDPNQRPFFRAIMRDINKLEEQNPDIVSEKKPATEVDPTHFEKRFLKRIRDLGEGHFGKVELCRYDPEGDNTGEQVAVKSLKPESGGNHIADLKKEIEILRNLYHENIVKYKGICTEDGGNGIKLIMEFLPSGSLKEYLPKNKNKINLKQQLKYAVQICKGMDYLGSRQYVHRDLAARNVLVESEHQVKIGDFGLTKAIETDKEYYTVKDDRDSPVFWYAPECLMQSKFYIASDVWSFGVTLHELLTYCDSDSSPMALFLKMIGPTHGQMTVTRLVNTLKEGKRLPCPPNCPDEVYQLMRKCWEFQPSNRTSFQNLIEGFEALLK

Sequence of JAK3 (P52333 781-1124): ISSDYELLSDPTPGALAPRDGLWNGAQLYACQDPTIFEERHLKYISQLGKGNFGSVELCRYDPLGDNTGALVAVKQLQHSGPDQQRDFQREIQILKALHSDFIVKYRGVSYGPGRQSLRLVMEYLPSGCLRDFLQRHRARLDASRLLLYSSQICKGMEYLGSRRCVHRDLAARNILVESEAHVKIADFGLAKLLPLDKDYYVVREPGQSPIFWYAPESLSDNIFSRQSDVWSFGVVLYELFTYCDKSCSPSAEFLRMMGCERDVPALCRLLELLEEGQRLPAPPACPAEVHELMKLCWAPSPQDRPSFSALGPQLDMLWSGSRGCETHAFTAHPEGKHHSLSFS
Sequence of JAK2 (O60674 808-1132): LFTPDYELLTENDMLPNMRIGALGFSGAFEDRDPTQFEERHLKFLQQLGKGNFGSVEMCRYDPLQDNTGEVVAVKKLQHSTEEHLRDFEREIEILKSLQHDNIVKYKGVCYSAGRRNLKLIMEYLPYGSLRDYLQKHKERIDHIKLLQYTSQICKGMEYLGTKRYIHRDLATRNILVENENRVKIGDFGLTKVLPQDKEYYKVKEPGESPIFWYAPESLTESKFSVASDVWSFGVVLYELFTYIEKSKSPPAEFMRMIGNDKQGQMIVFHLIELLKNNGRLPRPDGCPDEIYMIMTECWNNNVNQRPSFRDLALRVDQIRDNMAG

`CN(C)S(=O)(=O)C[C@H]1CCCN(S(=O)(=O)C[C@H]2CC[C@H](N(C)c3ncnc4[nH]ccc34)CC2)C1` [Example 57, N,N-dimethyl-1-{1-[({trans-4-[methyl(7H-pyrrolo[2,3-d]pyrimidin-4-yl)amino]-cyclohexyl}methyl)sulfonyl]piperidin-3-yl}-methanesulfonamide] showed an IC50 (JAK3) of 453 nM, an IC50 (JAK2) of 50.8 nM and an IC50 (JAK1) of 7.7 nM.
Molecule `CN(c1ncnc2[nH]ccc12)[C@H]1CC[C@H](CS(=O)(=O)N2CC[C@H](COCc3cccnc3)C2)CC1` [Example 96, N-methyl-N-{trans-4-[({3-[(pyridin-3-ylmethoxy)-methyl]pyrrolidin-1-yl}-sulfonyl)methyl]-cyclohexyl}-7H-pyrrolo[2,3-d]pyrimidin-4-amine] has an IC50 (JAK3) of 462 nM, an IC50 (JAK2) of 32.1 nM and an IC50 (JAK1) of 19.3 nM.
`CN(c1ncnc2[nH]ccc12)[C@H]1CC[C@H](CS(=O)(=O)N2CCC[C@H](C#N)C2)CC1` [Example 64, 1-[({trans-4-[methyl(7H-pyrrolo[2,3-d]pyrimidin-4-yl)amino]cyclohexyl}-methyl)sulfonyl]piperidine-3-carbonitrile] showed an IC50 (JAK3) of 263 nM, an IC50 (JAK2) of 32.1 nM and an IC50 (JAK1) of 2.71 nM.
`CN(c1ncnc2[nH]ccc12)[C@H]1CC[C@H](CS(=O)(=O)N2CC(c3nnn[nH]3)C2)CC1` [Example 113, N-methyl-N-[trans-4-({[3-(1H-tetrazol-5-yl)azetidin-1-yl]sulfonyl}methyl)-cyclohexyl]-7H-pyrrolo[2,3-d]pyrimidin-4-amine] was tested, and the IC50 (JAK3) was 111 nM, the IC50 (JAK2) was 9.99 nM and the IC50 (JAK1) was 1.55 nM.
Work on `CN(c1ncnc2[nH]ccc12)[C@H]1CC[C@H](CS(=O)(=O)N2CCC[C@@H](O)C2)CC1` [Example 40, (3R)-1-[({trans-4-[methyl(7H-pyrrolo[2,3-d]pyrimidin-4-yl)amino]-cyclohexyl}methyl)sulfonyl]piperidin-3-ol] yielded an IC50 (JAK3) of 105 nM, an IC50 (JAK2) of 8.04 nM and an IC50 (JAK1) of 1.44 nM.
Work on `Cc1cc(CC[C@]2(O)CCN(S(=O)(=O)C[C@H]3CC[C@H](N(C)c4ncnc5[nH]ccc45)CC3)C2)on1` [Example 85, 3-[2-(3-methylisoxazol-5-yl)ethyl]-1-[({trans-4-[methyl(7H-pyrrolo[2,3-d]-pyrimidin-4-yl)amino]-cyclohexyl}methyl)sulfonyl] pyrrolidin-3-ol] yielded an IC50 (JAK3) of 286 nM, an IC50 (JAK2) of 46.2 nM and an IC50 (JAK1) of 10.5 nM.
With `CN(c1ncnc2[nH]ccc12)[C@H]1CC[C@H](CS(=O)(=O)N2CC[C@@](O)(CSc3ccccn3)C2)CC1` [Example 97, 1-[({trans-4-[methyl(7H-pyrrolo[2,3-d]pyrimidin-4-yl)-amino]cyclohexyl}-methyl)sulfonyl]-3-[(pyridin-2-ylthio)-methyl]pyrrolidin-3-ol] the IC50 (JAK3) was 85.6 nM, the IC50 (JAK2) was 13.1 nM and the IC50 (JAK1) was 1.36 nM.
`CN(c1ncnc2[nH]ccc12)[C@H]1CC[C@H](CS(=O)(=O)N2CC(O)C2)CC1` [Example 115, 1-[({trans-4-[methyl(7H-pyrrolo[2,3-d]pyrimidin-4-yl)amino]cyclohexyl}-methyl)sulfonyl]azetidin-3-ol] showed an IC50 (JAK3) of 303 nM, an IC50 (JAK2) of 34.4 nM and an IC50 (JAK1) of 10.7 nM.
For `CN(c1ncnc2[nH]ccc12)[C@H]1CC[C@H](CS(=O)(=O)N2C[C@@H](O)[C@H](c3ccccc3)C2)CC1` [Example 29, (3S,4R)-1-[({trans-4-[methyl(7H-pyrrolo[2,3-d]pyrimidin-4-yl)amino]-cyclohexyl}methyl)sulfonyl]-4-phenylpyrrolidin-3-ol], the IC50 (JAK3) was 151 nM, the IC50 (JAK2) was 15 nM and the IC50 (JAK1) was 5.22 nM.
`C[C@H]1CN(S(=O)(=O)C[C@H]2CC[C@H](N(C)c3ncnc4[nH]ccc34)CC2)C[C@@H]1CO` [Example 80, {(3R,4R)-4-methyl-1-[({trans-4-[methyl(7H-pyrrolo[2,3-d]pyrimidin-4-yl)amino]cyclohexyl}-methyl)sulfonyl]pyrrolidin-3-yl}methanol] was tested, and the IC50 (JAK3) was 205 nM, the IC50 (JAK2) was 18.5 nM and the IC50 (JAK1) was 3.03 nM.
`COC1CCN(S(=O)(=O)C[C@H]2CC[C@H](N(C)c3ncnc4[nH]ccc34)CC2)CC1` [Example 41, N-(trans-4-{[(4-methoxy-piperidin-1-yl)-sulfonyl]-methyl}cyclohexyl)-N-methyl-7H-pyrrolo[2,3-d]-pyrimidin-4-amine] gave an IC50 (JAK3) of 634 nM, an IC50 (JAK2) of 107 nM and an IC50 (JAK1) of 22.1 nM.
Work on `CNS(=O)(=O)[C@H]1CCN(S(=O)(=O)C[C@H]2CC[C@H](N(C)c3ncnc4[nH]ccc34)CC2)C1` [Example 81, N-methyl-1-[({trans-4-[methyl(7H-pyrrolo[2,3-d]-pyrimidin-4-yl)amino]-cyclohexyl}methyl)sulfonyl] pyrrolidine-3-sulfonamide] yielded an IC50 (JAK3) of 90.6 nM, an IC50 (JAK2) of 24.8 nM and an IC50 (JAK1) of 2.78 nM.
`CCC1(C(N)=O)CCN(S(=O)(=O)C[C@H]2CC[C@H](N(C)c3ncnc4[nH]ccc34)CC2)CC1` [Example 44, 4-ethyl-1-[({trans-4-[methyl(7H-pyrrolo[2,3-d]-pyrimidin-4-yl)amino]-cyclohexyl}methyl)sulfonyl] piperidine-4-carboxarnide] gave an IC50 (JAK3) of 353 nM, an IC50 (JAK2) of 61.1 nM and an IC50 (JAK1) of 8.01 nM.
Molecule `CN(c1ncnc2[nH]ccc12)[C@H]1CC[C@H](CS(=O)(=O)N2C[C@@H](O)[C@H](O)C2)CC1` [Example 72, (3R,4R)-1-[({trans-4-[methyl(7H-pyrrolo[2,3-d]-pyrimidin-4-yl)amino]-cyclohexyl}methyl)sulfonyl] pyrrolidine-3,4-diol] has an IC50 (JAK3) of 173 nM, an IC50 (JAK2) of 39.6 nM and an IC50 (JAK1) of 5.92 nM.
Molecule `C[C@H]1CCCN(S(=O)(=O)C[C@H]2CC[C@H](N(C)c3ncnc4[nH]ccc34)CC2)C1` [Example 61, N-methyl-N-(trans-4-{[(3-methylpiperidin-1-yl)sulfonyl]methyl}cyclo-hexyl)-7H-pyrrolo[2,3-d]-pyrimidin-4-amine] has an IC50 (JAK3) of 851 nM, an IC50 (JAK2) of 72.2 nM and an IC50 (JAK1) of 10.8 nM.
Work on `CN(c1ncnc2[nH]ccc12)[C@H]1CC[C@H](CS(=O)(=O)N2CC[C@@](O)(c3ccccc3)C2)CC1` [Example 91, 1-[({trans-4-[methyl(7H-pyrrolo[2,3-d]pyrimidin-4-yl)amino]cyclohexyl}-methyl)sulfonyl]-3-phenylpyrrolidin-3-ol] yielded an IC50 (JAK3) of 76.6 nM, an IC50 (JAK2) of 10.8 nM and an IC50 (JAK1) of 1.92 nM.
`CCCS(=O)(=O)CC1CCCN(S(=O)(=O)C[C@H]2CC[C@H](N(C)c3ncnc4[nH]ccc34)CC2)C1` (stereo partly drawn) [Example 17, N-methyl-N-{trans-4-[({3-[(propylsulfonyl)methyl]-piperidin-1-yl}sulfonyl)-methyl]-cyclohexyl}-7H-pyrrolo[2,3-d]pyrimidin-4-amine] was tested, and the IC50 (JAK3) was 745 nM, the IC50 (JAK2) was 54.7 nM and the IC50 (JAK1) was 6.06 nM.
`CN(c1ncnc2[nH]ccc12)[C@H]1CC[C@H](CS(=O)(=O)N2CCC(c3nc(CS(C)(=O)=O)no3)CC2)CC1` [Example 50, N-methyl-N-(trans-4-{[(4-{3-[(methylsulfonyl)-methyl]-1,2,4-oxadiazol-5-yl}piperidin-1-yl)sulfonyl]-methyl)cyclohexyl)-7H-pyrrolo[2,3-d]pyrimidin-4-amine] gave an IC50 (JAK3) of 581 nM, an IC50 (JAK2) of 65.8 nM and an IC50 (JAK1) of 8.33 nM.
In the case of `CN(c1ncnc2[nH]ccc12)[C@H]1CC[C@H](CS(=O)(=O)N2CCC[C@@H](OC(=O)C(C)(C)C)C2)CC1` [Example 134, trans-(R)-1-((4-(methyl(7H-pyrrolo[2,3-d]pyrimidin-4-yl)amino)cyclohexyl)methylsulfonyl)piperidin-3-yl pivalate], the IC50 (JAK3) is reported as 3.89 nM, the IC50 (JAK2) is reported as 0.129 nM and the IC50 (JAK1) is reported as 0.0227 nM.
`CCOP(=O)(OCC)O[C@@H]1CCCN(S(=O)(=O)C[C@H]2CC[C@H](N(C)c3ncnc4[nH]ccc34)CC2)C1` [Example 140, Diethyl (3R)-1-[({trans-4-[methyl(7H-pyrrolo[2,3-d]pyrimidin-4-yl)amino]cyclohexyl}methyl)sulfonyl]piperidin-3-yl phosphate] showed an IC50 (JAK3) of 1.8 nM, an IC50 (JAK2) of 0.116 nM and an IC50 (JAK1) of 0.0235 nM.
For `COCCOC1CCCN(S(=O)(=O)C[C@H]2CC[C@H](N(C)c3ncnc4[nH]ccc34)CC2)C1` (stereo partly drawn) [Example 139, N-[trans-4-({[3-(2-methoxyethoxy)piperidin-1-yl]sulfonyl}methyl)cyclohexyl]-N-methyl-7H-pyrrolo[2,3-d]pyrimidin-4-amine], the IC50 (JAK3) was 0.0368 nM, the IC50 (JAK2) was 0.00405 nM and the IC50 (JAK1) was 0.00125 nM.
For `CN(c1ncnc2[nH]ccc12)[C@H]1CC[C@H](CS(=O)(=O)N2CC[C@H](Cc3cnccn3)C2)CC1` [Example 102, N-methyl-N-[trans-4-({[3-(pyrazin-2-ylmethyl)-pyrrolidin-1-yl]sulfonyl}-methyl)cyclohexyl]-7H-pyrrolo[2,3-d]pyrimidin-4-amine], the IC50 (JAK3) was 283 nM, the IC50 (JAK2) was 28.6 nM and the IC50 (JAK1) was 19.9 nM.
For `CN(c1ncnc2[nH]ccc12)[C@H]1CC[C@H](CS(=O)(=O)N2CCCC(C(=O)O)C2)CC1` (stereo partly drawn) [Example 16, 1-[({trans-4-[methyl(7H-pyrrolo[2,3-d]pyrimidin-4-yl)amino]cyclohexyl}methyl)-sulfonyl]piperidine-3-carboxylic acid], the IC50 (JAK3) was 74.3 nM, the IC50 (JAK2) was 7.71 nM and the IC50 (JAK1) was 2.13 nM.
For `CN(c1ncnc2[nH]ccc12)[C@H]1CC[C@H](CS(=O)(=O)N2CCCC(OCC(N)=O)C2)CC1` (stereo partly drawn) [Example 7, 2-({1-[({trans-4-[methyl-(7H-pyrrolo[2,3-d]-pyrimidin-4-yl)amino]-cyclohexyl}methyl)sulfonyl]-piperidin-3-yl}oxy)-acetamide], the IC50 (JAK3) was 173 nM, the IC50 (JAK2) was 18.3 nM and the IC50 (JAK1) was 2.96 nM.
`CN(c1ncnc2[nH]ccc12)[C@H]1CC[C@H](CS(=O)(=O)N2C[C@@H](O)[C@@H](O)C2)CC1` [Example 71, (3R,4S)-1-[({trans-4-[methyl(7H-pyrrolo[2,3-d]-pyrimidin-4-yl)amino]-cyclohexyl}methyl)sulfonyl] pyrrolidine-3,4-diol] was tested, and the IC50 (JAK3) was 80.8 nM, the IC50 (JAK2) was 8.54 nM and the IC50 (JAK1) was 2.52 nM.
Work on `CN(c1ncnc2[nH]ccc12)[C@H]1CC[C@H](CS(=O)(=O)N2CC(S(=O)(=O)c3ccccc3)C2)CC1` [Example 114, N-methyl-N-[trans-4-({[3-(phenylsulfonyl)azetidin-l-yl]sulfonyl}methyl)cyclo-hexyl]-7H-pyrrolo[2,3-d]-pyrimidin-4-amine] yielded an IC50 (JAK3) of 63 nM, an IC50 (JAK2) of 9.2 nM and an IC50 (JAK1) of 3.05 nM.

Reference: patent US8633206B2, “Pyrrolo[2,3-D]pyrimidine compounds” (Pfizer Inc., priority 2009, dated 2014)
